Laboratory results as given in US20040019118A1, “NMDA receptor antagonists and their use in inhibiting abnormal hyperphosphorylation of microtubule associated protein tau” (priority 2002, published 2004).
Entries after “also recorded” stand apart in the source; their conditions may differ. Like-named read-outs stand apart in the source and are kept apart here.

Legend:
PP-2A [1] = target: T1, PP-2A (Rattus norvegicus, UniProt P63331); test: PP-2A activity in extracts of treated hippocampal slice cultures; type: cell-based
T1 construct: from tissue; host or cells: organotypic culture of adult rat hippocampal slices; 16,000xg extract
T1 sequence (P63331 whole entry): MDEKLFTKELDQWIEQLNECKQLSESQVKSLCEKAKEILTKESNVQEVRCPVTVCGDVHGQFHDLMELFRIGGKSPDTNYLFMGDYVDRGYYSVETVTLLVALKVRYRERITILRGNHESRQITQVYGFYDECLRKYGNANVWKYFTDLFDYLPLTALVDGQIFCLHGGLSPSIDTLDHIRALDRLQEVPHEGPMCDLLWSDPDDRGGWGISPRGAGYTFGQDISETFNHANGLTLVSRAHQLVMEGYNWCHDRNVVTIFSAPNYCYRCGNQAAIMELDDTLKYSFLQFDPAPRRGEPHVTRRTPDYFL
Procedure: (§1) Organotypic cultures of rat hippocampal slices were prepared from 20-30 day old Wistar rats and cultured with the interface method as described previously (Stoppini, et al. 1991; Bahr, et al. 1995; Zhongrin, et al. 2000). The rats were anesthetized with ketamine (100 mg/kg body weight) and decapitated and the hippocampi were dissected out and sliced into 400 um coronal sections by a McIllwain tissue chopper. Select slices with uninterrupted bright transparent neuronal layers were plated, 1-3 slices/filter, onto Millicell CM filters (Millipore, Bedford, Mass.). For the first 2 days in vitro (DIV) cultures were maintained in 25% horse serum, 50% Basal Media-Eagle (BEM), 25% Eagle's Balanced Salt Solution (EBSS), 25 mM HEPES, 1 mM glutamine, 28 mM glucose, pH 7.2, at 32° C. in a 5% CO2 humidified atmosphere. The slice cultures were then switched to 25% horse serum, 50% BEM and EBSS modified so that the potassium concentration was 2.66 mM, for another 5 DIV. After 7 DIV, the cultures were maintained in physiological potassium containing 5% horse serum medium at 35° C. for at least 20 days before any treatment was applied. When the slices were treated, the reagents were applied into the culture medium. At different time points, the slices collected with a brush were washed twice in homogenizing buffer (50 mM HEPES, pH 7.0, 10 mM β-merceptoethanol [BME], 1 mM EDTA, 1 mM EGTA, 0.1 mM phenylmethyl sulfonyl fluoride [PMSF], 2.0 mM benzamidine and 2.0 μg/ml each of aprotinin, leupeptin and pepstatin) and homogenized at 4° C. using a Teflon-glass homogenizer. The homogenate was then divided into two parts, one was centrifuged at 16000×g for 15 min and the supernatant was used to assay activities of PP-2A and PP-1. The rest of the homogenate was diluted 1:1 with a phosphatase inhibitor cocktail (20 mM β-glycerophosphate, 2 mM Na3VO4 and 100 mM NaF, pH 7.0) and either used for Western blots or centrifuged at 16000×g for 15 min and the resulting supernatant used to determine the kinase activities.
(§2) Activities of PP-2A and PP-1 were assayed towards [^32P] phosphorylase-a as a substrate as described previously (Gong, et al. 1994). The phosphatase activity was assayed in 20 μl of reaction mixture containing 50 mM Tris, pH 7.0, 10 mM BME, 0.1 mM EDTA, 7.5 mM caffeine, 7.5 ng/μl [^32P]phosphorylase-a and 0.06 mg/ml slice culture extract. The reaction was started by adding ^32P-phosphorylase-a. After incubation for 30 min at 30° C., 7 μl of the reaction mixture was spotted on to 31 ETCHR chromatography paper which had been prespotted with 10 μl stop solution (4 mM ATP+20% TCA). Then the ^32p released was separated from the protein-incorporated ^32P by paper chromatography in 5% TCA and 0.2 M NaCl, paper strips dried, cut and counted by Cerenkov radiation. A PP-1 specific inhibitor, inhibitor-1 (Hitken, et al. 1982) was included in the assays for PP-2A activity. PP-1 activity was calculated by subtracting the PP-2A activity from the total phosphorylase-a phosphatase activity (PP-1/PP-2A) assayed in the absence of inhibitor-1.

tau = test: Tau phosphorylation by radioimmuno-dot-blots and 125I-Western blots of slice homogenates; type: cell-based, rat
Procedure: as §1, with “The” for “Organotypic cultures of rat hippocampal slices were prepared from 20-30 day old Wistar rats and cultured with the interface method as described previously (Stoppini, et al. 1991; Bahr, et al. 1995; Zhongrin, et al. 2000). The”, “For the first 2 days in vitro (DIV) cultures were maintained in 25% horse serum, 50% Basal Media-Eagle (BEM), 25% Eagle's Balanced Salt Solution (EBSS), 25 mM HEPES, 1 mM glutamine, 28 mM glucose, pH 7.2, at 32° C. in a 5% CO2 humidified atmosphere. The slice cultures were then switched to 25% horse serum, 50% BEM and EBSS modified so that the potassium concentration was 2.66 mM, for another 5 DIV.” left out
Triplicate samples of each homogenate were applied to nitrocellulose membrane (Schleicher and Schuell, Keene, N.H.) and dried at 37° C.

[2] = tested on: tau phosphorylated at Ser-262; test: Immunohistochemical staining of tau phosphorylated at Ser 262 in cultured hippocampal slices; type: cell-based, rat; details: 100 nM OA 24 h
Procedure: (§3) Organotypic cultures of rat hippocampal slices were prepared from 20-30 day old Wistar rats and cultured with the interface method as described previously (Stoppini, et al. 1991; Bahr, et al. 1995; Zhongrin, et al. 2000). The rats were anesthetized with ketamine (100 mg/kg body weight) and decapitated and the hippocampi were dissected out and sliced into 400 um coronal sections by a McIllwain tissue chopper. Select slices with uninterrupted bright transparent neuronal layers were plated, 1-3 slices/filter, onto Millicell CM filters (Millipore, Bedford, Mass.). For the first 2 days in vitro (DIV) cultures were maintained in 25% horse serum, 50% Basal Media-Eagle (BEM), 25% Eagle's Balanced Salt Solution (EBSS), 25 mM HEPES, 1 mM glutamine, 28 mM glucose, pH 7.2, at 32° C. in a 5% CO2 humidified atmosphere. The slice cultures were then switched to 25% horse serum, 50% BEM and EBSS modified so that the potassium concentration was 2.66 mM, for another 5 DIV. […]
After different treatments some of the hippocampal slices were fixed in periodate/lysine/paraformaldehyde solution (Mclean, et al. 1974) at 33° C. for 5 h and then kept in 1% Triton-x-100 in PBS (pH 7.4) for 72 h at room temperature to improve the penetration of the antibodies. […] Peroxidase was detected using 0.05% diaminobenzidine (DAB) and H2O2 (0.01%) for 10 min.

PP-2A [3] = target: T1, PP-2A; test: PP-2A activity after in vitro addition to 16,000xg extract of hippocampal slices; type: biochemical
Procedure: as §2
For this purpose we treated the hippocampal slices in culture either with 100 nM OA plus 10 μM Memantine or with OA alone for 24 h, followed by a wash and then treatment with or without Memantine for another 24 h.

cdk5 = cdk5 activity in extracts of treated hippocampal slice cultures; type: cell-based, rat
Procedure: as §3, with “DIV. After 7 DIV, the cultures were maintained in physiological potassium containing 5% horse serum medium at 35° C. for at least 20 days before any treatment was applied. When the slices were treated, the reagents were applied into the culture medium.” for “DIV.”

[4] = 100 nM OA 24 h, then 10 μM Memantine 24 h
[5] = Memantine in OA-treated cultures

`CC12CC3CC(C)(C1)CC(N)(C3)C2` [Memantine, 1-amino-3,5-dimethyl adamantane] was tested, and the “restoration of OA-inhibited PP-2A activity” value (PP-2A [1]; 100 nM OA and 1, 10 or 30 μM Memantine, 3-48 h (FIG. 2a), p<0.02) was “restored the OA-inhibited PP-2A activity to normal level”, the “restoration of PP-2A activity” value (PP-2A [1]; 100 nM OA plus 10 μM Memantine 24 h, or OA 24 h, wash, then Memantine 24 h) was “restored the PP-2A activity to normal level; also recorded: almost completely restored; also recorded: restored the activities of both PP-2A and CaMKII” and the “restoration of OA-inhibited PP-2A activity” value (PP-2A [1]; 100 nM OA, 10 μM Memantine, 24 h) was “practically completely restored; also recorded: restored the OA-induced changes in the activities of PP-2A, CaMKII and PKA to normal levels”. For the same compound, the “restoration of OA-inhibited PP-2A activity” value (PP-2A [1]; 5 μM compound) was “restoration”, the “additional effect on restoration of PP-2A activity” value (PP-2A [1]; Memantine 10 to 30 μM, or 24 h to 48 h) was “Neither increase of Memantine from 10 μM to 30 μM nor duration of the treatment from 24 h to 48 h resulted in any significant additional effect” and the “concentration giving full effect on restoration of PP-2A activity” value (PP-2A [1]; OA-treated slices) was 10 µM. The “lowest concentration at which restoration of PP-2A activity was observed” value (PP-2A [1]; OA-treated slices) was 1 µM, the “effect on PP-2A activity” value (PP-2A [1]; after 0.3 mM glutamate 1 h, 10 μM Memantine or 15 μM MK801) was “no effect” and the “effect on PP-2A activity in control (untreated) slices” value (PP-2A [1]; no OA) was “no significant effect”. For the same compound, the “restoration of OA-induced tau phosphorylation at Ser-214” value (tau; [4]) was “restored the tau phosphorylation at Ser-262 and Ser-214 to normal levels”, the “restoration of OA-induced tau phosphorylation at Ser-262” value (tau; [4]) was “restored the tau phosphorylation at Ser-262 and Ser-214 to normal levels; also recorded: practically completely restored” and the “restoration of phosphorylation of tau at Ser-262” value (tau; 5 μM compound, OA-treated) was “restoration”. The “concentration of maximal effect on tau phosphorylation at Ser-262” value (tau; 2-10 μM tested, 24 h) was 5 µM, the “lowest concentration inhibiting OA-induced tau phosphorylation at Ser-262” value (tau; 2-10 μM tested, radioimmuno-dot-blot) was 2 µM and the “effect on OA-induced phosphorylation of tau at Ser-422” value (tau; [5]) was “no effect”. The “effect on level of total tau” value (tau; antibody 134d, radioimmuno-dot-blots) was “no detectable effect”, the “pS262 positive cells / p-Ser-262 immunostaining” value ([2]; then 10 μM Memantine 24 h) was “decreased dramatically; also recorded: markedly decreased; also recorded: restored in large part” and the “effect on PP-2A activity of extract of slices cultured with 100 nM OA for 24 h” value (PP-2A [3]; Memantine 1-10 μM added to extract) was “no significant effect; also recorded: failed to restore”. The “effect on PP-2A activity inhibited in extract with 100 nM OA” value (PP-2A [3]; Memantine 1 to 60 μM added to extract) was “no significant effect” and the “effect on cdk5 activity” value (cdk5; [5]) was “neither OA nor Memantine had any significant effect; also recorded: no significant effect”.

In the case of `C=C1[C@@H](O)[C@@H]2O[C@]3(CC[C@H](/C=C/[C@@H](C)[C@@H]4CC(C)=C[C@@]5(O[C@H](C[C@@](C)(O)C(=O)O)CC[C@H]5O)O4)O3)CC[C@H]2O[C@@H]1[C@@H](O)C[C@H](C)[C@H]1O[C@@]2(CCCCO2)CC[C@H]1C` [OA, Okadaic Acid], the “inhibition (decrease) of PP-2A activity” value (PP-2A [1]; 100 nM OA, 24 h) is reported as about 40%, the “inhibition (decrease) of PP-2A activity” value (PP-2A [1]; 1000 nM (1 μM) OA, 48 h, 1 µM) is reported as about 75% and the inhibition at 0.1 µM (PP-2A [1]; read-out: inhibition (decrease) of PP-2A activity, 100 nM OA, 24 h) is reported as 42%. For the same compound, the inhibition at 1 µM (PP-2A [1]; read-out: inhibition (decrease) of PP-2A activity, 1000 nM (1 μM) OA, 48 h) was 78%, the inhibition at 0.01 µM (PP-2A [1]; read-out: inhibition of PP-2A activity, 10 nM OA, 24 h) was about 20% and the inhibition at 1 µM (PP-2A [1]; read-out: inhibition of PP-2A activity, 1 μM OA, 24 h) was about 65%. For the same compound, the “phosphorylation of tau at Ser-214” value (tau; OA-treated cultures) was “modest increase”, the “phosphorylation of tau at Ser-262” value (tau; OA-treated cultures) was “marked increase; also recorded: dramatic increase” and the “phosphorylation of tau at Ser-422” value (tau; OA-treated cultures) was “marked increase; also recorded: dramatic increase”. For the same compound, the “pS262 positive cells / p-Ser-262 staining” value ([2]; then medium 24 h) was “increased markedly; also recorded: marked increase”, the inhibition at 0.1 µM (PP-2A [3]; read-out: inhibition of PP-2A activity, 100 nM OA added to extract of untreated cultures) was 90% and the “change in cdk5 activity” value (cdk5; OA-treated slice cultures) was “no significant change; also recorded: neither OA nor Memantine had any significant effect; also recorded: no significant alteration”.
